Patent US20240082416A1, “AMATOXIN ANALOGS AND USES THEREOF” (THE UNIVERSITY OF BRITISH COLUMBIA, priority 2020, published 2024)
Values joined by “and” are separate entries in the source; they are usually repeats but may differ in a detail not shown here. Equal values may be shown once. Starred links: 1 amine or outer side, 2 acyl side, 3 side chain; linkers in the order of their positions; H or OH if unused. Positions of bridges follow the written chain, without caps; N, C: chain ends. Non-standard residues stand in square brackets, D forms with d. Residues, ends and D or L forms follow the SMILES beside them. X4 = CC(C)(C)OC(=O)/N=C(\N)N[C@@H]1C[C@@H](C(=O)[*:2])N([*:1])C1; Trp(2-yl) = O=C([C@H](Cc1c([*:3])[nH]c2ccccc12)N[*:1])[*:2]; Ile(4R-OH,5-OH) = C[C@H]([C@H](N)C(=O)O)[C@@H](O)CO; X3 = CC(=O)NCS[C@@H]1C[C@@H](C(=O)[*:2])N([*:1])C1

Key:
Pol II = biological target: T1, Pol II (Homo sapiens, UniProt P24928); experiment: In vitro transcription runoff assay using HeLaScribe nuclear extract; format: biochemical; details: for IC50: IC50 (nM), Table 12, n = 3, high values estimated from activity at [I]=1.0 μM
T1 construct: HeLaScribe® nuclear extract containing Pol II and all other transcription factors; purchased Promega; host or cells: HeLa nuclear extract (endogenous protein)
Excerpt: (h) In vitro transcription assay of synthetic amanitins containing analogs of Hyp: Primers were purchased from IDT via standard phosphoramidite chemistry. dNTP and rNTP were purchased from Thermofisher. GoTaq polymerase and HeLaScribe*Nuclear Extract in vitro Transcription System was purchased from Promega. Taq polymerase was purchased from NEB. [^32P] α-dGTP (3000 Ci/mmol 10 mCi/ml EasyTide) and [^32P] α-GTP (3000 Ci/mmol 10 mCi/ml EasyTide) were purchased from Perkin Elmer. QIAquick PCR purifcation kit was purchased from Qiagen. AcGFP1-N1 was a gift (Addgene plasmid #54705; http://n2t.net/addgene:54705; RRID:Addgene_54705). DNA Primer sequences were:
The DNA template for transcription runoff was synthesized by PCR with template pAcGFP-N1, and primers P1 and P2. To a final volume of 20 μL, 1 x GoTaq Buffer, 250 μM of each dNTP, 500 nM of each primers P1 and P2, […] pAcGFP-N1 and 0.05 U/μL GoTaq were employed to thermocycle for 30 cycles (30 s at 95° C., 30 s at 50° C. and 60 s at 72° C., Bio-Rad). A 1 μL aliquot of the amplified solution was resolved with 6×DNA loading dye in a 1% agarose gel containing […] and then visualized using GelDoc XR imager (Bio-Rad). Purification was completed via QIAquick PCR purification kit (Qiagen). The radioactive chromatographic standard was synthesized by PCR with template pAcGFP-N1, and primers P3 and P4. To a final volume of 50 μL, 1 x Thermopol Buffer, 200 μM of each dNTP, 500 nM of each primers P3 and P4, 10 pg/μL pAcGFP-N1 and 0.02 U/μL Vent polymerase, 1 μL [^32P] α-dGTP were employed to thermocycle for 30 cycles (30 s at 95° C., 30 s at 62° C. and 30 s at 72° C., Bio-Rad). A 1 μL aliquot of the amplified solution was resolved with 6×DNA loading dye in 8% denaturing PAGE and then visualized by autoradiography via the Typhoon 9200 imager (Molecular namics-Amersham-GE). Purification was completed via QIAquick PCR purification kit (Qiagen). The transcription runoff assay was modified from HeLaScribe® Nuclear Extract in vitro Transcription System (Promega). […]. The pellet was resolved by 8% denaturing PAGE and then visualized by autoradiography via the Typhoon 9200 imager (Molecular dynamics-Amersham-GE). Dosimetry was calculated by ImageJ, and the 3 parameter logistic fit was completed by Origin 2019 (OriginLab). […]
All data were presented in mean±standard deviation (n=3).

CHO cells = experiment: Viability assay against CHO cells (MTT colorimetric assay); format: cell-based, Chinese hamster; details: 72 h, replicates n = 1, 2, 3
Procedure: (§1) (f) Cell culture: Cells were cultured in Minimum Essential Medium Eagle—Alpha Modification (α-MEM) or […] Dulbecco's Modified Eagle Medium (DMEM), purchased from Gibco. […] All cell culture plastic ware was obtained from Coming or Falcon. Cells were cultured at 37° C. in a humidified chamber with 5% CO2. When used in cell culture, DMSO was purified by filtration through a […] filter. All experiments were carried out in a laminar flow culture cabinet, unless otherwise noted.
(§2) Immortalized CHO cells had been stored in liquid nitrogen. To revive cells, a 1-mL tube of the frozen cells in medium containing 10% DMSO was warmed in a 30° C. water bath and diluted with 9 mL of fresh media. Media contained 10% FBS and 100 U/mL penicillin and […] streptomycin, unless otherwise indicated. The cells were incubated in a T-25 flask at 37° C. at 5% CO2. After 24 hours, the medium was aspirated and replaced with fresh medium. When cells reached a level of 90-100% confluence, they were sub-cultured. […] Once the cells were detached from the tissue culture flask, 3-5 mL media was added to quench the trypsin and the mixture was transferred to a 10 mL centrifuge tube. The mixture was centrifuged for 5 min at […], and the supernatant was discarded. The cells were suspended in fresh medium, diluted as required, and transferred to a new culture flask.
(§3) To assay cell viability, a nearly confluent tissue culture flask was trypsinized, and the cells were counted following treatment with Trypan blue, using a hemocytometer. The cells were then diluted to the appropriate stock concentrations in fresh medium and transferred in 100 μL to a 96-well plate using a multi-channel pipette. The number of cells plated varied from experiment to experiment. These were incubated at 37° C. and 5% CO2 for a 24-hour period to allow for adherence. The medium was aspirated, and fresh medium was added, which contained the desired additives in DMSO. The cells were then re-incubated for 72 h. At the completion of the experiment, a 100 μL aliquot of 25 mg/mL MTT in phosphate-buffered saline (PBS) was added to each well. The plate was incubated three hours further to allow for the formation of the formazan product in viable cells. The media was carefully aspirated, and the purple product was solubilized in DMSO. […] Data was processed in Microsoft Excel and GraphPad Prism. Experiments were performed in triplicates unless otherwise noted, and the error bars were calculated as the standard error of the mean.
(§4) Each cell line was plated in a 96-well plate, with 100 μL of the stock solution per well (5000 cells per well) and incubated for 24 hours. […] The cells were incubated for 72 hours, at which point viability was assessed as described.

[1] = as above; format: cell-based, Chinese hamster; details: Chinese hamster, CHO cells, 72 h, replicates n = 1, 2, 3, read-out: % viable cells
Procedure: as §1, §2, §3, §4

Question: For `CC[C@H](C)[C@@H]1NC(=O)CNC(=O)[C@@H]2Cc3c([nH]c4ccccc34)SC[C@H](NC(=O)CNC1=O)C(=O)N[C@@H](CC(N)=O)C(=O)N1C[C@H](SCNC(C)=O)C[C@H]1C(=O)N[C@@H]([C@@H](C)[C@@H](O)CO)C(=O)N2` [Compound 8, SAcm-Pro-amanitin] (cyclo(CN[X3][Ile(4R-OH,5-OH)][Trp(2-yl)]GIG); thioether 1-5), which IC50 (Pol II) is on record?
Answer: > 1000 nM

Question: And the “% viable cells” value (CHO cells; 1e-005 M, listed as SAcm-Pro-amanitin (8))?
Answer: 90% and 99%

Question: What about the “% viable cells” value (CHO cells; 1.25e-006 M, listed as SAcm-Pro-amanitin (8)) of the same compound?
Answer: 85% and 92% and 106%

Question: What about the “% viable cells” value (CHO cells; 1.56e-007 M, listed as SAcm-Pro-amanitin (8)) of the same compound?
Answer: 94% and 93% and 113%

Question: What about the “% viable cells” value (CHO cells; 2e-005 M, listed as SAcm-Pro-amanitin (8)) of the same compound?
Answer: 110% and 105% and 99%

Question: And the “% viable cells” value (CHO cells; 2.5e-006 M, listed as SAcm-Pro-amanitin (8))?
Answer: 87% and 92% and 105%

Question: What about the “% viable cells” value (CHO cells; 3.125e-007 M, listed as SAcm-Pro-amanitin (8)) of the same compound?
Answer: 88% and 93% and 110%

Question: What about the “% viable cells” value (CHO cells; 5e-006 M, listed as SAcm-Pro-amanitin (8)) of the same compound?
Answer: 86% and 89%

Question: And the “% viable cells” value (CHO cells; 6.25e-007 M, listed as SAcm-Pro-amanitin (8))?
Answer: 93% and 90% and 108%

Question: Which IC50 (Pol II) does the source give for `CC[C@H](C)[C@@H]1NC(=O)CNC(=O)[C@@H]2Cc3c([nH]c4ccccc34)SC[C@H](NC(=O)CNC1=O)C(=O)N[C@@H](CC(N)=O)C(=O)N1C[C@H](N/C(N)=N/C(=O)OC(C)(C)C)C[C@H]1C(=O)N[C@@H]([C@@H](C)[C@@H](O)CO)C(=O)N2` [Compound 9, Boc-Gdn-Pro-amanitin] (cyclo(CN[X4][Ile(4R-OH,5-OH)][Trp(2-yl)]GIG); thioether 1-5) here?
Answer: > 600 nM

Question: And the “inhibitory effects” value (Pol II; up to 1 μM concentrations)?
Answer: did not exhibit any noticeable inhibitory effects

Question: And the viability at 72 h, 1.25e-06 M ([1]; 1.25e-006 M)?
Answer: 84%

Question: What about the viability at 72 h, 1.56e-07 M ([1]; 1.56e-007 M) of the same compound?
Answer: 87%

Question: And the viability at 72 h, 2.5e-06 M ([1]; 2.5e-006 M)?
Answer: 86%

Question: And the viability at 72 h, 3.9e-08 M ([1]; 3.9e-008 M)?
Answer: 88%

Question: What about the viability at 72 h, 5e-06 M ([1]; 5e-006 M) of the same compound?
Answer: 86%

Question: What about the viability at 72 h, 6.25e-07 M ([1]; 6.25e-007 M) of the same compound?
Answer: 84%

Question: What about the viability at 72 h, 7.8e-08 M ([1]; 7.8e-008 M) of the same compound?
Answer: 85%

Question: And the “% viable cells” value (CHO cells; 1e-005 M, listed as Boc-Gdn-Pro-amanitin (9))?
Answer: 103% and 98% and 119%

Question: What about the “% viable cells” value (CHO cells; 1.25e-006 M, listed as Boc-Gdn-Pro-amanitin (9)) of the same compound?
Answer: 89% and 100%

Question: What about the “% viable cells” value (CHO cells; 1.56e-007 M, listed as Boc-Gdn-Pro-amanitin (9)) of the same compound?
Answer: 97%

Question: What about the “% viable cells” value (CHO cells; 2.5e-006 M, listed as Boc-Gdn-Pro-amanitin (9)) of the same compound?
Answer: 100%

Question: What about the “% viable cells” value (CHO cells; 3.125e-007 M, listed as Boc-Gdn-Pro-amanitin (9)) of the same compound?
Answer: 82% and 90% and 103%

Question: What about the “% viable cells” value (CHO cells; 3.9e-008 M, listed as Boc-Gdn-Pro-amanitin (9)) of the same compound?
Answer: 102%

Question: And the “% viable cells” value (CHO cells; 5e-006 M, listed as Boc-Gdn-Pro-amanitin (9))?
Answer: 104%

Question: And the “% viable cells” value (CHO cells; 6.25e-007 M, listed as Boc-Gdn-Pro-amanitin (9))?
Answer: 102%

Question: And the “% viable cells” value (CHO cells; 7.8e-008 M, listed as Boc-Gdn-Pro-amanitin (9))?
Answer: 101%
